In patent publication US9580463B2 (BRISTOL-MYERS SQUIBB COMPANY, priority 2013, dated 2017):
pEC50: −log10 of the molar value. Where two headings read alike, the source gives them in different places.

Columns and labels:
[1] = test system: HCV genotype 1b (Con1) replicon in HUH-7 cells; test: HCV replicon luciferase reporter assay, genotype 1b; format: cell-based; settings: Hepatitis C virus, 72 h, genotype 1b replicon, 3 days incubation
Text: An HCV replicon whole cell system was established as described by Lohmann V, Korner F, Koch J, Herian U, Theilmann L, Bartenschlager R., Science 285(5424):110-3 (1999) and modified to introduce a luciferase reporter, as first described by Krieger et al (Krieger N, Lohmann V, and Bartenschlager R, J. Virol. 75(10):4614-4624 (2001)). CDNA encoding a humanized form of the Renilla luciferase gene and a linker sequence fused directly to the 3′-end of the luciferase gene were introduced into the replicon construct using an Asc1 restriction site located in core, directly upstream of the neomycin marker gene. The adaptive mutation at position 1179 (serine to isoleucine) was also introduced (Blight K J, Kolykhalov, A A, Rice, C M, Science 290(5498):1972-1974). A stable cell line constitutively expressing this HCV replicon construct was generated by first linearizing plasmid DNAs with ScaI. RNA transcripts were synthesized in vitro using the T7 MegaScript transcription kit (Ambion, Austin, Tex.) according to manufacturer's directions. In vitro transcripts of the cDNA were transfected into the human hepatoma cell line, HUH-7. […] Resulting cell lines were characterized for positive and negative strand RNA production and protein production over time. […]
(§1) HCV replicon luciferase assays were developed to monitor the inhibitory effects of compounds described in the disclosure on HCV genotypes 1a and 1b viral replication. HUH-7 cells, constitutively expressing the HCV replicon, were grown in Dulbecco's Modified Eagle Media (DMEM) (Gibco-BRL) containing 10% Fetal calf serum (FCS) (Sigma) and 1 mg/mL G418 (Gibco-BRL). Compounds were serially diluted 3 folds in DMSO for a twenty-point titration and subsequently transferred to sterile 384-well tissue-culture treated plates (Corning cat #3571). The plates were then seeded with 50 μL of cells at a density of 3.0×10^3 cells/well in DMEM containing 4% FCS (final DMSO concentration at 0.5%). After 3 days incubation at 37° C., cells were analyzed for Renilla Luciferase activity using the EnduRen as substrate (Promega cat #E6485). The EnduRen substrate was diluted in DMEM and then added to the plates to a final concentration of 7.5 μM. The plates were incubated for 2 hrs at 37° C. and then read immediately for 30 seconds with Viewlux Imager (PerkinElmer) using a luminescence program. To assess cytotoxicity of compounds, CC50 values were generated by multiplexing the EnduRen-containing plates with Cell Titer-Blue (Promega, cat # G8082). Cell-Titer Blue (3 μL) was added to each well and incubated for 8 hrs at 37° C. The fluorescence signal from each well was read, with an excitation wavelength at 525/10 nm and an emission wavelength of 598/10 nm, using the Viewlux Imager.
(§2) The EC50 values for compounds were calculated by using a four-parameter logistic equation: y=A+((B−A)/(1+((C/x)^D))), where A and B denotes minimal and maximal % inhibition, respectively, C is the EC50, D is the hill slope and x represents compound concentration.

[2] = test system: HCV genotype 1a (H77 strain) replicon in HUH-7 cells; test: HCV replicon luciferase reporter assay, genotype 1a; format: cell-based; settings: Hepatitis C virus, 72 h, genotype 1a replicon, 3 days incubation, read-out: LE_1a (EC50, range)
Text: An HCV replicon whole cell system was established as described by Lohmann V, Korner F, Koch J, Herian U, Theilmann L, Bartenschlager R., Science 285(5424):110-3 (1999) and modified to introduce a luciferase reporter, as first described by Krieger et al (Krieger N, Lohmann V, and Bartenschlager R, J. Virol. 75(10):4614-4624 (2001)). CDNA encoding a humanized form of the Renilla luciferase gene and a linker sequence fused directly to the 3′-end of the luciferase gene were introduced into the replicon construct using an Asc1 restriction site located in core, directly upstream of the neomycin marker gene. The adaptive mutation at position 1179 (serine to isoleucine) was also introduced (Blight K J, Kolykhalov, A A, Rice, C M, Science 290(5498):1972-1974). A stable cell line constitutively expressing this HCV replicon construct was generated by first linearizing plasmid DNAs with ScaI. RNA transcripts were synthesized in vitro using the T7 MegaScript transcription kit (Ambion, Austin, Tex.) according to manufacturer's directions. In vitro transcripts of the cDNA were transfected into the human hepatoma cell line, HUH-7. […] Resulting cell lines were characterized for positive and negative strand RNA production and protein production over time.
A stable HCV replicon luciferase reporter cell line representing the genotype 1a H77 strain (Yanagi M, Purcell R H, Emerson S U, et al. Transcripts from a single full-length cDNA clone of hepatitis C virus are infectious when directly transfected into the liver of a chimpanzee. Proc Natl Acad Sci USA 1997; 94(16):8738-8743) was generated as described previously for the genotype 1b (Con1) replicon luciferase cell line. The replicon construct was modified by introducing mutations were introduced into the genes encoding the NS3 helicase domain (proline replaced by leucine at position 1496) and NS5A (serine to isoleucine at position 2204) to improve replication in cell culture.
as §1, §2

Structure (SMILES) | pEC50 ([1]; read-out: LE_1b (EC50, range)) | pEC50 [2] | pEC50 ([1]; read-out: LE_1b (EC50))
COC[C@@H]1C[C@H](C)CC/C=C\[C@@H]2C[C@@]2(C(=O)NS(=O)(=O)C2CC2)NC(=O)[C@@H]2C[C@@H](Oc3nccc4cc(OC)ccc34)CN2C(=O)[C@H]1NC(=O)OC(C)(C)C(F)(F)F [Compound 1019, 1,1,1-trifluoro-2-methylpropan-2-yl ((2R,6S,7R,9R,13aS,14aR,16aS,Z)-14a-((cyclopropylsulfonyl)carbamoyl)-2-((6-methoxyisoquinolin-1-yl)oxy)-7-(methoxymethyl)-9-methyl-5,16-dioxo-1,2,3,5,6,7,8,9,10,11,13a,14,14a,15,16,16a-hexadecahydrocyclopropa[e]pyrrolo[1,2-a][1,4]diazacyclopentadecin-6-yl)carbamate] | 9.00 to 9.29 | 8.30 to 9.00 | –
COC[C@@H]1C[C@H](C)CC/C=C\[C@@H]2C[C@@]2(C(=O)NS(=O)(=O)C2(C)CC2)NC(=O)[C@@H]2C[C@@H](Oc3nc4cc(OC)ccc4nc3C(C)C)CN2C(=O)[C@H]1NC(=O)OC(C)(C)C [Compound 1030, tert-butyl ((2R,6S,7R,9R,13aS,14aR,16aS,Z)-2-((3-isopropyl-7-methoxyquinoxalin-2-yl)oxy)-7-(methoxymethyl)-9-methyl-14a-(((1-methylcyclopropyl)sulfonyl)carbamoyl)-5,16-dioxo-1,2,3,5,6,7,8,9,10,11,13a,14,14a,15,16,16a-hexadecahydrocyclopropa[e]pyrrolo[1,2-a][1,4]diazacyclopentadecin-6-yl)carbamate] | 7.46 to 8.30 | 6.21 to 7.46 | –
COC[C@@H]1C[C@H](C)CC/C=C\[C@@H]2C[C@@]2(C(=O)NS(=O)(=O)C2(CF)CC2)NC(=O)[C@@H]2C[C@@H](Oc3nc4cc(OC)ccc4nc3C(F)(F)F)CN2C(=O)[C@H]1NC(=O)OC(C)(C)C(F)(F)F [Compound 1037, 1,1,1-trifluoro-2-methylpropan-2-yl ((2R,6S,7R,9R,13aS,14aR,16aS,Z)-14a-(((1-(fluoromethyl)cyclopropyl)sulfonyl)carbamoyl)-2-((7-methoxy-3-(trifluoromethyl)quinoxalin-2-yl)oxy)-7-(methoxymethyl)-9-methyl-5,16-dioxo-1,2,3,5,6,7,8,9,10,11,13a,14,14a,15,16,16a-hexadecahydrocyclopropa[e]pyrrolo[1,2-a][1,4]diazacyclopentadecin-6-yl)carbamate] | 8.30 to 9.00 | 8.30 to 9.00 | –
CCOc1cnc(O[C@@H]2C[C@H]3C(=O)N[C@]4(C(=O)NS(=O)(=O)C5(C)CC5)C[C@H]4/C=C\CC[C@H](C)C[C@@H](COC)[C@H](NC(=O)OC(C)(C)C(C)(F)F)C(=O)N3C2)c2ccc(OC)cc12 [Compound 1067, 3,3-difluoro-2-methylbutan-2-yl ((2R,6S,7R,9S,13aS,14aR,16aS,Z)-2-((4-ethoxy-6-methoxyisoquinolin-1-yl)oxy)-7-(methoxymethyl)-9-methyl-14a-(((1-methylcyclopropyl)sulfonyl)carbamoyl)-5,16-dioxo-1,2,3,5,6,7,8,9,10,11,13a,14,14a,15,16,16a-hexadecahydrocyclopropa[e]pyrrolo[1,2-a][1,4]diazacyclopentadecin-6-yl)carbamate] | – | – | 9.30
COC[C@@H]1C[C@@H](C)CC/C=C\[C@@H]2C[C@@]2(C(=O)NS(=O)(=O)C2(C)CC2)NC(=O)[C@@H]2C[C@@H](Oc3nc4cc(OC(C)C)ccc4nc3C(F)(F)F)CN2C(=O)[C@H]1NC(=O)OC(C)(C)C(F)(F)F [Compound 1057, 1,1,1-trifluoro-2-methylpropan-2-yl ((2R,6S,7R,9S,13aS,14aR,16aS,Z)-2-((7-isopropoxy-3-(trifluoromethyl)quinoxalin-2-yl)oxy)-7-(methoxymethyl)-9-methyl-14a-(((1-methylcyclopropyl)sulfonyl)carbamoyl)-5,16-dioxo-1,2,3,5,6,7,8,9,10,11,13a,14,14a,15,16,16a-hexadecahydrocyclopropa[e]pyrrolo[1,2-a][1,4]diazacyclopentadecin-6-yl)carbamate] | 7.46 to 8.30 | – | –
CCOc1cnc(O[C@@H]2C[C@H]3C(=O)N[C@]4(C(=O)NS(=O)(=O)C5(C)CC5)C[C@H]4/C=C\CC[C@@H](C)C[C@@H](COC)[C@H](NC(=O)OC(C)(C)C(C)(F)F)C(=O)N3C2)c2ccc(OC)cc12 [Compound 1068, 3,3-difluoro-2-methylbutan-2-yl ((2R,6S,7R,9R,13aS,14aR,16aS,Z)-2-((4-ethoxy-6-methoxyisoquinolin-1-yl)oxy)-7-(methoxymethyl)-9-methyl-14a-(((1-methylcyclopropyl)sulfonyl)carbamoyl)-5,16-dioxo-1,2,3,5,6,7,8,9,10,11,13a,14,14a,15,16,16a-hexadecahydrocyclopropa[e]pyrrolo[1,2-a][1,4]diazacyclopentadecin-6-yl)carbamate] | 9.30 to 10.00 | – | –
CCOc1cnc(O[C@@H]2C[C@H]3C(=O)N[C@]4(C(=O)NS(=O)(=O)C5(C)CC5)C[C@H]4/C=C\CC[C@H](C)C[C@@H](COC)[C@H](NC(=O)OC(C)(C)C(F)(F)F)C(=O)N3C2)c2ccc(OC)cc12 [Compound 1065, 1,1,1-trifluoro-2-methylpropan-2-yl ((2R,6S,7R,9S,13aS,14aR,16aS,Z)-2-((4-ethoxy-6-methoxyisoquinolin-1-yl)oxy)-7-(methoxymethyl)-9-methyl-14a-(((1-methylcyclopropyl)sulfonyl)carbamoyl)-5,16-dioxo-1,2,3,5,6,7,8,9,10,11,13a,14,14a,15,16,16a-hexadecahydrocyclopropa[e]pyrrolo[1,2-a][1,4]diazacyclopentadecin-6-yl)carbamate] | 9.30 to 10.00 | – | –
CCOc1ccc2nc(C(F)(F)F)c(O[C@@H]3C[C@H]4C(=O)N[C@]5(C(=O)NS(=O)(=O)C6(C)CC6)C[C@H]5/C=C\CC[C@H](C)C[C@@H](COC)[C@H](NC(=O)OC(C)(C)C(C)(F)F)C(=O)N4C3)nc2c1 [Compound 1051, 3,3-difluoro-2-methylbutan-2-yl ((2R,6S,7R,9S,13aS,14aR,16aS,Z)-2-((7-ethoxy-3-(trifluoromethyl)quinoxalin-2-yl)oxy)-7-(methoxymethyl)-9-methyl-14a-(((1-methylcyclopropyl)sulfonyl)carbamoyl)-5,16-dioxo-1,2,3,5,6,7,8,9,10,11,13a,14,14a,15,16,16a-hexadecahydrocyclopropa[e]pyrrolo[1,2-a][1,4]diazacyclopentadecin-6-yl)carbamate] | 8.30 to 9.00 | – | –
